Measured values from ChEMBL document CHEMBL5154690, “Discovery of a tricyclic farnesoid X receptor agonist HEC96719, a clinical candidate for treatment of non-alcoholic steatohepatitis” (Eur J Med Chem, 2022).
Calls of active or inactive are those of the source. The calls are words filed in the database; no cut-off is given here.

What was measured:
[1] = Drug recovery in plasma of male Sprague-Dawley rat at 4.5 mg/kg, po administered as C14-lableled compound and assessed as radioactivity and measured at 6 hrs; format: ADME, organism-based; conditions: in vivo
[2] = Drug recovery in stomach of male Sprague-Dawley rat at 4.5 mg/kg, po administered as C14-lableled compound and assessed as radioactivity and measured at 6 hrs; format: ADME, organism-based; conditions: in vivo
[3] = biological target: T1, Peroxisome proliferator-activated receptor gamma (Homo sapiens, UniProt P37231); test: Agonist activity at PPARgamma (unknown origin)
T1 sequence (P37231 whole entry): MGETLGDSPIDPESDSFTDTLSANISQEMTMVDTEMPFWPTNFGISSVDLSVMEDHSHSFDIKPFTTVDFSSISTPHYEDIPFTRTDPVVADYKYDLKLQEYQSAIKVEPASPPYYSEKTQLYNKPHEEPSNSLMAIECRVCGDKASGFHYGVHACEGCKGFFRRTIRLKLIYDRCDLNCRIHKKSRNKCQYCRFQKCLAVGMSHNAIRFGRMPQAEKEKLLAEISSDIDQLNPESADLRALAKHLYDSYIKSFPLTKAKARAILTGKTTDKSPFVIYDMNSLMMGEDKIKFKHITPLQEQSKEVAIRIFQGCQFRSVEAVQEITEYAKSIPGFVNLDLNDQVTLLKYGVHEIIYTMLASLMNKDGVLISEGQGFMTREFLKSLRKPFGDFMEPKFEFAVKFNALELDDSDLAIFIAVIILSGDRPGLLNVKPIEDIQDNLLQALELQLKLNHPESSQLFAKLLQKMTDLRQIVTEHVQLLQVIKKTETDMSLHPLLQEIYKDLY

[4] = tested on: Mus musculus; test: Antifibrotic activity in C57BL/6 mouse model of CCI4-induced liver fibrosis assessed as decrease in serum TBIL level at 1 mg/kg, po administered once daily for 4 weeks; format: functional, organism-based
[5] = Ratio of drug level in pancreas to plasma in male Sprague-Dawley rat at 4.5 mg/kg, po administered as C14-lableled compound and measured at 0.25 to 6 hrs; format: ADME, organism-based; conditions: other tissue, time 0.25-6 hrs
[6] = tested on: Mus musculus; test: Anti-NASH activity against high fat (HF) diet-induced nonalcoholic steatohepatitis in leptin-deficient ob/ob mouse model assessed as reduction in liver cholesterol level at 3 mg/kg, po administered once daily from week 5 to 10; format: functional, organism-based
[7] = Mutagenecity in Salmonella typhimurium TA100 measured by Ames test; format: toxicity; conditions: salmonella enterica subsp. enterica serovar typhimurium
[8] = AUC (0 to t) in male Sprague-Dawley rat at 5 mg/kg, po measured by LC-MS/MS analysis; format: ADME, organism-based; parameters: dose 5 mg/kg, route po; conditions: in vivo
[9] = Drug recovery in plasma of male Sprague-Dawley rat at 4.5 mg/kg, po administered as C14-lableled compound and assessed as radioactivity and measured at 1 hr; format: ADME, organism-based; conditions: in vivo
[10] = Drug recovery in liver of male Sprague-Dawley rat at 4.5 mg/kg, po administered as C14-lableled compound and assessed as radioactivity and measured at 0.25 hrs; format: ADME, organism-based; conditions: in vivo
[11] = tested on: Mus musculus; test: Anti-NASH activity in western style diet-induced nonalcoholic steatohepatitis model of male C57BL/6 mouse assessed as reduction in NASH activity score (NAS) at 1 mg/kg, po administered once daily from week 32 to 44; format: functional, organism-based
[12] = Drug recovery in heart of male Sprague-Dawley rat at 4.5 mg/kg, po administered as C14-lableled compound and assessed as radioactivity and measured at 6 hrs; format: ADME, organism-based; conditions: in vivo, BLD = below limit of detection
[13] = Half-life in male Beagle dog at 5 mg/kg, po measured by LC-MS/MS analysis; format: ADME, organism-based, Canis lupus familiaris; conditions: in vivo
[14] = Drug recovery in spleen of male Sprague-Dawley rat at 4.5 mg/kg, po administered as C14-lableled compound and assessed as radioactivity and measured at 0.25 hrs; format: ADME, organism-based; conditions: in vivo
[15] = Drug recovery in ileum of male Sprague-Dawley rat at 4.5 mg/kg, po administered as C14-lableled compound and assessed as radioactivity and measured at 6 hrs; format: ADME, organism-based; conditions: in vivo
[16] = Clearance in male C57BL/6 mouse at 2 mg/kg, iv measured by LC-MS/MS analysis; format: ADME, organism-based; conditions: in vivo
[17] = biological target: T2, Bile acid receptor (Rattus norvegicus) (UniProt Q62735); test: In vivo activation of FXR in male Sprague-Dawley rat assessed as fold increase in FGF15 level at 5 mg/kg, po administered once daily for 14 days measured at 6 hrs by ELISA; format: functional, organism-based; conditions: time 14.0 day
T2 sequence (whole entry): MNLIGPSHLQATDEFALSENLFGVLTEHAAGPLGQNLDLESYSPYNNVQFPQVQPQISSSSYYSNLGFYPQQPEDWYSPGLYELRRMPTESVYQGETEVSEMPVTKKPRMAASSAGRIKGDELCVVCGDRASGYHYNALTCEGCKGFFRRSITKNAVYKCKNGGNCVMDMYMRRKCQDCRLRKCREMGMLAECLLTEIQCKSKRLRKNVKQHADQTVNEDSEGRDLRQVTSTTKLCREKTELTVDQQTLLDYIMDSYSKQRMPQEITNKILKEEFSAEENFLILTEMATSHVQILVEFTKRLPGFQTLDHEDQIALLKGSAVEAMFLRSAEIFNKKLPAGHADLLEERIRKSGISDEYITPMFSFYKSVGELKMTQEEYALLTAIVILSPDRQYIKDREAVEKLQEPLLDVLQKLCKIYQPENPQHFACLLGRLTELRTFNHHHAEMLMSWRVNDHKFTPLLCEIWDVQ

[18] = Drug recovery in kidney of male Sprague-Dawley rat at 4.5 mg/kg, po administered as C14-lableled compound and assessed as radioactivity and measured at 6 hrs; format: ADME, organism-based; conditions: in vivo
[19] = Drug recovery in skin of male Sprague-Dawley rat at 4.5 mg/kg, po administered as C14-lableled compound and assessed as radioactivity and measured at 6 hrs; format: ADME, organism-based, Skin of body; conditions: in vivo, BLD = below limit of detection
[20] = Mutagenecity in Salmonella typhimurium TA1535 measured by Ames test; format: toxicity; conditions: salmonella enterica subsp. enterica serovar typhimurium
[21] = Mutagenecity in Salmonella typhimurium TA97A measured by Ames test; format: toxicity; conditions: salmonella enterica subsp. enterica serovar typhimurium
[22] = Drug recovery in kidney of male Sprague-Dawley rat at 4.5 mg/kg, po administered as C14-lableled compound and assessed as radioactivity and measured at 24 hrs; format: ADME, organism-based; conditions: in vivo
[23] = Drug recovery in plasma of male Sprague-Dawley rat at 4.5 mg/kg, po administered as C14-lableled compound and assessed as radioactivity and measured at 0.25 hrs; format: ADME, organism-based; conditions: in vivo
[24] = tested on: Mus musculus; test: Antifibrotic activity in C57BL/6 mouse model of CCI4-induced liver fibrosis assessed as decrease in serum TBIL level at 0.1 to 1 mg/kg, po administered once daily for 4 weeks; format: functional, organism-based; conditions: dose 0.1-1 mg/kg
[25] = Drug recovery in skin of male Sprague-Dawley rat at 4.5 mg/kg, po administered as C14-lableled compound and assessed as radioactivity and measured at 1 hr; format: ADME, organism-based, Skin of body; conditions: in vivo
[26] = tested on: Mus musculus; test: Anti-NASH activity against high fat (HF) diet-induced nonalcoholic steatohepatitis in leptin-deficient ob/ob mouse model assessed as reduction in serum ALT level at 0.1 to 1 mg/kg, po administered once daily from week 5 to 10; format: functional, organism-based; conditions: dose 0.1-1 mg/kg
[27] = Drug recovery in lung of male Sprague-Dawley rat at 4.5 mg/kg, po administered as C14-lableled compound and assessed as radioactivity and measured at 0.25 hrs; format: ADME, organism-based; conditions: in vivo

## O=C(O)c1ccc2c(c1)Oc1ccc(OCc3c(-c4c(Cl)cccc4Cl)noc3C3CC3)nc1C1(CC1)C2
[1]
  Drug recovery: 27 ngequiv/g
[2]
  Drug recovery: 188 ngequiv/g
[3]
  EC50: > 10 µM
[4]
  Activity: Active
[5]
  Ratio: 0.8
[6]
  Activity: Active
[7]
  Activity: Non-Toxic
[8]
  AUC(0-t): 1180 ng·h/mL
[9]
  Drug recovery: 305 ngequiv/g
[10]
  Drug recovery: 5308 ngequiv/g
[11]
  Activity: Active
[12]
  Drug recovery: Bld
[13]
  half-life: 205 min
[14]
  Drug recovery: 192 ngequiv/g
[15]
  Drug recovery: 5620 ngequiv/g
[16]
  clearance: 160 mL/min/kg
[17]
  fold change (FC): 18
[18]
  Drug recovery: 67.8 ngequiv/g
[19]
  Drug recovery: Bld
[20]
  Activity: Non-Toxic
[21]
  Activity: Non-Toxic
[22]
  Drug recovery: 74.4 ngequiv/g
[23]
  Drug recovery: 229 ngequiv/g
[24]
  Activity: Active
[25]
  Drug recovery: 117 ngequiv/g
[26]
  Activity: Active
[27]
  Drug recovery: 868 ngequiv/g
